According to ChEMBL document CHEMBL2417501, “Synthesis of 4-aminoquinoline-pyrimidine hybrids as potent antimalarials and their mode of action studies” (Eur J Med Chem, 2013):
pEC50, pIC50: −log10 of the molar value.

Legend:
Feline coronavirus = experiment: Antiviral activity against Feline coronavirus infected in cat CRFK cells assessed as reduction of virus-induced cytopathogenicity by MTS assay; type: functional, organism-based; conditions: Alphacoronavirus 1, CRFK
[1] = system: Mammalian orthoreovirus 1; experiment: Antiviral activity against Reovirus-1 infected in african green monkey Vero cells assessed as reduction of virus-induced cytopathogenicity; type: functional, organism-based; conditions: Mammalian orthoreovirus 1, Vero
Human alphaherpesvirus 3 [2] = experiment: Antiviral activity against TK-positive Varicella-zoster virus OKA infected in human HEL cells assessed as reduction of plaque formation; type: functional, cell-based; conditions: Human alphaherpesvirus 3, strain Oka vaccine
Escherichia coli = experiment: Binding affinity to Escherichia coli pUC18 DNA at 30 uM by fluorescence assay
Coxsackievirus [3] = experiment: Antiviral activity against Coxsackievirus B4 infected in african green monkey Vero cells assessed as reduction of virus-induced cytopathogenicity; type: functional, organism-based
[4] = Cytotoxicity against human HeLa cells; type: cell-based
Human alphaherpesvirus 3 [5] = experiment: Antiviral activity against […] Varicella-zoster virus 07-1 infected in human HEL cells assessed as reduction of plaque formation; type: functional, organism-based; conditions: Human alphaherpesvirus 3, 07-1, HEL
Human respirovirus 3 = experiment: Antiviral activity against Parainfluenza-3 virus infected in african green monkey Vero cells assessed as reduction of virus-induced cytopathogenicity; type: functional, organism-based; conditions: Human respirovirus 3, Vero
[6] = system: Respiratory syncytial virus; experiment: Antiviral activity against Respiratory syncytial virus infected in human HeLa cells assessed as reduction of virus-induced cytopathogenicity; type: functional, organism-based
Influenza A virus [7] = experiment: Antiviral activity against influenza A virus H1N1 subtype infected in dog MDCK cells assessed as reduction of virus-induced cytopathogenicity by MTS assay; type: functional, organism-based
[8] = Cytotoxicity against human HEL cells; type: cell-based
DNA [9] = experiment: Binding affinity to calf thymus DNA at 30 uM by fluorescence assay; type: nucleic-acid assay; conditions: Bos taurus
Sindbis virus = experiment: Antiviral activity against Sindbis virus infected in african green monkey Vero cells assessed as reduction of virus-induced cytopathogenicity; type: functional, organism-based
Cytomegalovirus [10] = experiment: Antiviral activity against Cytomegalovirus AD-169 infected in human HEL cells assessed as reduction of plaque formation; type: functional, organism-based; conditions: Human betaherpesvirus 5, AD-169, HEL
Heme [11] = experiment: Binding affinity to monomeric heme (unknown origin) in HEPES buffer at pH 7.4 at 1 to 25 uM by UV-visible spectrophotometry
[12] = Selectivity index, ratio of CC50 for MDCK cells to IC50 for chloroquine-resistant Plasmodium falciparum Dd2; type: functional
Influenza A virus [13] = experiment: Antiviral activity against influenza A virus […] subtype infected in dog MDCK cells assessed as reduction of virus-induced cytopathogenicity by MTS assay; type: functional, organism-based; conditions: read-out: EC50
[14] = Cytotoxicity against african green monkey Vero cells; type: cell-based; conditions: chlorocebus sabaeus
Human alphaherpesvirus 1 [15] = experiment: Antiviral activity against Herpes simplex virus-1 KOS infected in human HEL cells assessed as reduction of virus-induced cytopathogenicity; type: functional, organism-based; conditions: Human alphaherpesvirus 1, KOS
DNA [16] = experiment: Binding affinity to calf thymus DNA assessed as compound DNA intercalation measured as hypochromatic shift at 255 nm at 30 uM by UV-visible spectrophotometry; type: nucleic-acid assay; conditions: Bos taurus
Heme [17] = experiment: Binding affinity to monomeric heme (unknown origin) in MES buffer at pH 5.6 at 1 to 25 uM by UV-visible spectrophotometry
Human alphaherpesvirus 1 [18] = experiment: Antiviral activity against TK-negative Herpes simplex virus 1 KOS infected in human HEL cells assessed as reduction of virus-induced cytopathogenicity; type: functional, organism-based; conditions: Human alphaherpesvirus 1, KOS
[19] = Cytotoxicity against cat CRFK cells; type: cell-based, Felis catus; conditions: crfk
[20] = Inhibition of beta-hematin formation at 1 mg/ml; type: functional
Felid alphaherpesvirus 1 = experiment: Antiviral activity against feline herpesvirus infected in cat CRFK cells assessed as reduction of virus-induced cytopathogenicity by MTS assay; type: functional, organism-based; conditions: Felid alphaherpesvirus 1, CRFK
[21] = system: Vesicular stomatitis virus; experiment: Antiviral activity against Vesicular stomatitis virus infected in human HEL cells assessed as reduction of virus-induced cytopathogenicity; type: functional, organism-based
Influenza B virus = experiment: Antiviral activity against influenza B virus infected in dog MDCK cells assessed as reduction of virus-induced cytopathogenicity by MTS assay; type: functional, organism-based
Human alphaherpesvirus 2 = experiment: Antiviral activity against Herpes simplex virus-2 G infected in human HEL cells assessed as reduction of virus-induced cytopathogenicity; type: functional, organism-based; conditions: Human alphaherpesvirus 2, strain G
Punta Toro virus = experiment: Antiviral activity against […] infected in african green monkey Vero cells assessed as reduction of virus-induced cytopathogenicity; type: functional, organism-based
mu-oxodimeric heme = experiment: Binding affinity to mu-oxodimericheme (unknown origin) in phosphate buffer at pH 5.8 at 1 to 25 uM by UV-visible spectrophotometry
DNA [22] = experiment: Binding affinity to calf thymus DNA assessed as compound DNA intercalation measured as hypochromatic shift at 330 nm at 30 uM by UV-visible spectrophotometry; type: nucleic-acid assay; conditions: Bos taurus
DNA [23] = experiment: Binding affinity to calf thymus DNA assessed as change in melting temperature at 30 uM by UV-visible spectrophotometry; type: nucleic-acid assay; conditions: Bos taurus
Coxsackievirus [24] = experiment: Antiviral activity against Coxsackievirus B4 infected in human HeLa cells assessed as reduction of virus-induced cytopathogenicity; type: functional, organism-based
MDCK = experiment: (§1) Cytotoxicity against MDCK cells assessed as cell viability after 4 days by MTS assay; type: cell-based, Canis lupus familiaris; conditions: dog, mdck, 96 h
[25] = as §1; type: cell-based, Canis lupus familiaris; conditions: dog, MDCK cells
Plasmodium falciparum = experiment: Antimalarial activity against chloroquine-resistant Plasmodium falciparum Dd2; type: functional, organism-based
Cytomegalovirus [26] = experiment: Antiviral activity against Cytomegalovirus Davis infected in human HEL cells assessed as reduction of plaque formation; type: functional, organism-based; conditions: Human betaherpesvirus 5, Davis
[27] = system: Vesicular stomatitis virus; experiment: Antiviral activity against Vesicular stomatitis virus infected in human HeLa cells assessed as reduction of virus-induced cytopathogenicity; type: functional, organism-based

SMILES: Cc1nc(NCCCCNc2ccnc3cc(Cl)ccc23)nc(-c2ccccc2)c1C(=O)OC(C)C
- pEC50 (Feline coronavirus): < 4.70
- pEC50 [1]: < 5.40
- pEC50 (Human alphaherpesvirus 3 [2]): 5.40
- log K (Escherichia coli): 5.73
- pEC50 (Coxsackievirus [3]): < 5.40
- MCC [4]: > 100 µM
- pEC50 (Human alphaherpesvirus 3 [5]): < 5.40
- pEC50 (Human respirovirus 3): < 5.40
- pEC50 [6]: < 4.00
- pEC50 (Influenza A virus [7]): < 6.80
- MCC [8]: 20 µM
- log K (DNA [9]): 5.76
- pEC50 (Sindbis virus): < 5.40
- pEC50 (Cytomegalovirus [10]): < 5.40
- log K (Heme [11]): 4.96
- Ratio CC50/IC50 [12]: 3.92
- pEC50 (Influenza A virus [13]): < 6.80
- MCC [14]: 20 µM
- pEC50 (Human alphaherpesvirus 1 [15]): < 5.40
- Activity (DNA [16]): 112%
- log K (Heme [17]): 4.58
- pEC50 (Human alphaherpesvirus 1 [18]): < 5.40
- CC50 [19]: 50.6 µM
- inhibition [20]: 72%
- pEC50 (Felid alphaherpesvirus 1): < 4.70
- pEC50 [21]: < 5.40
- pEC50 (Influenza B virus): < 6.80
- pEC50 (Human alphaherpesvirus 2): < 5.40
- pEC50 (Punta Toro virus): < 5.40
- log K (mu-oxodimeric heme): 5.72
- Activity (DNA [22]): 37%
- ΔTm (DNA [23]): 7.5 °C
- pEC50 (Coxsackievirus [24]): < 4.00
- CC50 (MDCK): 0.6 µM
- MCC at 96 h [25]: 800 nM
- pIC50 (Plasmodium falciparum): 6.82
- pEC50 (Cytomegalovirus [26]): < 5.40
- pEC50 [27]: < 4.00
